Experimental data taken from patent US12421254B2, “KRAS modulators and uses thereof” (Quanta Therapeutics, Inc., priority 2023, dated 2025).
Read-outs that look alike come from different tables or passages of the source.

Columns and labels:
[1] = target: GST-tagged KRAS-G12V (2-169) (Homo sapiens, UniProt P01116, G12V); assay: Nucleotide exchange assay (NEA), SOS-mediated, HTRF, KRAS G12V; type: biochemical; details: Table 4; IC50 extracted at 90 min; 80 nM SOS
Source text: (§1) This activity is tightly regulated by GTPase activating proteins (GAPs) and guanine nucleotide exchange factors (GEFs). GEFs, such as SOS1/2, activate Ras proteins by exchanging GDP for GTP, thus returning Ras to its active conformation (Simanshu, Nissley, & McCormick, 2017). […] Homogenous time resolved fluorescence (HTRF) was used to detect SOS-mediated binding of a fluorescent GTP analog, GTP-DY-647P1 (Jena Biosciences NU-820-647P1) to GST-tagged KRAS-G12D (2-169) or to GST-tagged KRAS-G12V (2-169, Reaction Biology, MSC-11-540).
(§2) GST-tagged KRAS-G12D (2-169) and anti-GST MAb Tb Cryptate Gold (CisBio 61GSTTLB) were diluted into assay buffer (20 mM HEPES, pH 7.3, 150 mM NaCl, 5 mM MgCl2, 0.05% BSA 0.0025% NP40, 1 mM DTT) to prepare a 2.5× donor solution. 5× compound was added to the protein mixture and incubated for 1 h at RT. 2.5× acceptor solution containing SOS1cat (564-1049, Reaction Biology MSC-11-502) and GTP-DY-647P1 were then added to the donor KRAS mixture such that the final concentration of the reaction contained 0.25 nM GST-tagged KRAS-G12D (2-169), 20 nM SOScat, and 150 nM GTP-DY-647P1. The reaction was monitored using at RT with the Envision multimode plate reader (Ex/Em 337/665, […]) up to 90 minutes at 5 minute intervals. To monitor KRAS-G12V SOS-mediated nucleotide exchange, 80 nM SOS was added to reaction instead of 20 nM. All other components were the same as previously described. Data was blanked to reactions without SOS1 and % inhibition was calculated such that DMSO only =0% and blank=100%. Curve fitting was done using a 4 parameter fit. Reported IC50 values were extracted at 30 min and 90 min for the KRAS-G12D and KRAS-G12V assays, respectively.

[2] = target: GST-tagged KRAS-G12D (2-169) (Homo sapiens, UniProt P01116, G12D); assay: Nucleotide exchange assay (NEA), SOS-mediated, HTRF, KRAS G12D; type: biochemical; details: IC50 extracted at 30 min, 20 nM SOScat
GST-tagged KRAS-G12D (2-169), sequence (P01116 2-169 isoform P01116-2 G12D): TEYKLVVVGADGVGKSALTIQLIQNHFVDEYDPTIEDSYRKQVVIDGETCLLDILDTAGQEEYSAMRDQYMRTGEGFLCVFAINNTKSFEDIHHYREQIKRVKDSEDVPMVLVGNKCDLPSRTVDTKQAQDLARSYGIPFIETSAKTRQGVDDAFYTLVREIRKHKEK
Source text: as §1, §2
NEA KRAS G12D IC50 (uM) values of selected compounds are depicted in Table 2 with compounds having a value <0.01 uM as ++++; ≥0.01 uM to 0.1 uM as +++; ≥0.1 uM to 1 uM as ++; ≥1 uM to 20 uM as +; and ≥20 uM as NA.

[3] = Table 4, read-out: NEA G12D IC50

GST-tagged KRAS-G12V (2-169), sequence (P01116 2-169 isoform P01116-2 G12V): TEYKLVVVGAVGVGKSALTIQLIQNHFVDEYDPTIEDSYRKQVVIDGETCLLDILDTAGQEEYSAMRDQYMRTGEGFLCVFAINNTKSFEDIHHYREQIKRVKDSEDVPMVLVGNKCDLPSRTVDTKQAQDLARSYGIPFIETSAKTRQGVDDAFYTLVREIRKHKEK

SMILES | IC50 [1] | IC50 [2, 3] | IC50 ([2]; Table 2, read-out: NEA-G12D (uM) IC50)
CN(Cc1cnsc1)c1nc(OC[C@@]23CCCN2C[C@H](F)C3)nc(N2CC3(CCc4sc(N)c(C#N)c43)C2)n1 [Compound 147, 2-amino-1′-[4-[[(2R,8S)-2-fluoro-1,2,3,5,6,7-hexahydropyrrolizin-8-yl]methoxy]-6-[isothiazol-4-ylmethyl(methyl)amino]-1,3,5-triazin-2-yl]spiro[5,6-dihydrocyclopenta[b]thiophene-4,3′-azetidine]-3-carbonitrile] | 10 to 100 nM | 0.1 to 1 µM | 
CCN(c1nc(OC[C@@H]2CC[C@@H]3CN(C)CCN32)nc(N2CC3(C2)SCc2sc(N)c(C#N)c23)n1)[C@H](C)c1cccnc1N (mixture of isomers) [Compound 216, 1′-[4-[[(6SR,8aRS)-2-methyl-3,4,6,7,8,8a-hexahydro-1H-pyrrolo[1,2-a]pyrazin-6-yl]methoxy]-6-[[(1R)-1-(2-amino-3-pyridyl)ethyl]-ethyl-amino]-1,3,5-triazin-2-yl]-2-amino-spiro[6H-thieno[3,4-b]thiophene-4,3′-azetidine]-3-carbonitrile] | < 10 nM | 0.1 to 1 µM | 
CC(c1cccnc1N)N(C)c1nc(OC[C@@]23CCCN2C[C@H](F)C3)nc(N2CC3(CCc4sc(N)c(C#N)c43)C2)n1 (stereo partly drawn) [Compound 83, 2-amino-1′-[4-[1-(2-amino-3-pyridyl)ethyl-methyl-amino]-6-[[(2R,8S)-2-fluoro-1,2,3,5,6,7-hexahydropyrrolizin-8-yl]methoxy]-1,3,5-triazin-2-yl]spiro[5,6-dihydrocyclopenta[b]thiophene-4,3′-azetidine]-3-carbonitrile] | < 10 nM | < 0.01 µM | 
CCN(c1nc(OCC2(CN(C)C)CCCN2)nc(N2CC3(C2)SCc2sc(N)c(C#N)c23)n1)[C@H](C)c1cccnc1N (stereo partly drawn) [Compound 225, 2-amino-1′-[4-[[(1R)-1-(2-amino-3-pyridyl)ethyl]-ethyl-amino]-6-[[2-[(dimethylamino)methyl]pyrrolidin-2-yl]methoxy]-1,3,5-triazin-2-yl]spiro[6H-thieno[3,4-b]thiophene-4,3′-azetidine]-3-carbonitrile] | < 10 nM | 0.01 to 0.1 µM | 
CC(c1ccccc1N)N(C)c1nc(OC[C@@]23CCCN2C[C@H](F)C3)nc(N2CC3(CCc4sc(N)c(C#N)c43)C2)n1 (stereo partly drawn) [Compound 121, 2′-amino-1-(4-((1-(2-aminophenyl)ethyl)(methyl)amino)-6-(((2R,7aS)-2-fluorotetrahydro-1H-pyrrolizin-7a(5H)-yl)methoxy)-1,3,5-triazin-2-yl)-5′,6′-dihydrospiro[azetidine-3,4′-cyclopenta[b]thiophene]-3′-carbonitrile] | ≥ 20000 nM | ≥ 20 µM | 
CC(c1n[nH]cc1N)N(C)c1nc(OC[C@@]23CCCN2C[C@H](F)C3)nc(N2CC3(C2)SCc2sc(N)c(C#N)c23)n1 (stereo partly drawn) [Compound 192, 2-amino-1′-[4-[1-(4-amino-1H-pyrazol-3-yl)ethyl-methyl-amino]-6-[[(2R,8S)-2-fluoro-1,2,3,5,6,7-hexahydropyrrolizin-8-yl]methoxy]-1,3,5-triazin-2-yl]spiro[6H-thieno[2,3-c]thiophene-4,3′-azetidine]-3-carbonitrile] | 10 to 100 nM | 0.1 to 1 µM | 
N#Cc1c(N)sc2c1C1(CC2)CN(c2nc(OC[C@@]34CCCN3C[C@H](F)C4)nc(N(CCO)Cc3c(F)ccnc3N)n2)C1 [Compound 154, 2-amino-1′-[4-[(2-amino-4-fluoro-3-pyridyl)methyl-(2-hydroxyethyl)amino]-6-[[(2R,8S)-2-fluoro-1,2,3,5,6,7-hexahydropyrrolizin-8-yl]methoxy]-1,3,5-triazin-2-yl]spiro[5,6-dihydrocyclopenta[b]thiophene-4,3′-azetidine]-3-carbonitrile] | < 10 nM | 0.01 to 0.1 µM | 
CC(c1ccc(P(C)(C)=O)cc1N)N(C)c1nc(OC[C@@]23CCCN2C[C@H](F)C3)nc(N2CC3(C2)SCc2sc(N)c(C#N)c23)n1 (stereo partly drawn) [Compound 231, 2′-amino-1-(4-((1-(2-amino-4-(dimethylphosphoryl)phenyl)ethyl)(methyl)amino)-6-(((2R,7aS)-2-fluorotetrahydro-1H-pyrrolizin-7a(5H)-yl)methoxy)-1,3,5-triazin-2-yl)-6′H-spiro[azetidine-3,4′-thieno[3,4-b]thiophene]-3′-carbonitrile] | ≥ 20000 nM | ≥ 20 µM | 
CC(c1cccnc1N)N(CCO)c1nc(OC[C@@]23CCCN2C[C@H](F)C3)nc(N2CC3(CCc4sc(N)c(C#N)c43)C2)n1 (stereo partly drawn) [Compound 110, 2-amino-1′-[4-[1-(2-amino-3-pyridyl)ethyl-(2-hydroxyethyl)amino]-6-[[(2R,8S)-2-fluoro-1,2,3,5,6,7-hexahydropyrrolizin-8-yl]methoxy]-1,3,5-triazin-2-yl]spiro[5,6-dihydrocyclopenta[b]thiophene-4,3′-azetidine]-3-carbonitrile] | < 10 nM | < 0.01 µM | 
N#Cc1c(N)sc2c1C1(CCC2)CN(c2nc(OCC3(CN4CCOCC4)CC3)nc(N3CCC[C@]4(C3)NC(=O)NC4=O)n2)C1 [Compound 6, 2-amino-1′-[4-[[1-(morpholinomethyl)cyclopropyl]methoxy]-6-[(5R)-2,4-dioxo-1,3,9-triazaspiro[4.5]decan-9-yl]-1,3,5-triazin-2-yl]spiro[6,7-dihydro-5H-benzothiophene-4,3′-azetidine]-3-carbonitrile] |  |  | 0.01 to 0.1 µM
C[C@@]1(O)CCCN(c2nc(OC[C@@]34CCCN3[C@H](COc3cc(C(F)(F)F)ncn3)CC4)nc(N3CC4(C3)SCc3sc(N)c(C#N)c34)n2)C1 (racemic) [Compound 253, 2-amino-1′-[4-[(3R)-3-hydroxy-3-methyl-1-piperidyl]-6-[[(3SR,8SR)-3-[[6-(trifluoromethyl)pyrimidin-4-yl]oxymethyl]-1,2,3,5,6,7-hexahydropyrrolizin-8-yl]methoxy]-1,3,5-triazin-2-yl]spiro[6H-thieno[3,4-b]thiophene-4,3′-azetidine]-3-carbonitrile] | < 10 nM |  | 
CC1(O)CCCN(c2nc(OCC34CCCN3C(COc3cc(C(F)(F)F)ncn3)CC4)nc(N3CC4(C3)SCc3sc(N)c(C#N)c34)n2)C1 (single isomer, unassigned) [Compound 256B] |  | < 0.01 µM | 
N#Cc1c(N)sc2c1C1(CN(c3nc(OC[C@@]45CCCN4C[C@H](F)C5)nc(N4[C@H]5CC[C@@H]4C(=O)C5)n3)C1)SC2 [Compound 280, 2-amino-1′-[4-[[(2R,8S)-2-fluoro-1,2,3,5,6,7-hexahydropyrrolizin-8-yl]methoxy]-6-(2-oxo-7-azabicyclo[2.2.1]heptan-7-yl)-1,3,5-triazin-2-yl]spiro[6H-thieno[3,4-b]thiophene-4,3′-azetidine]-3-carbonitrile] |  | 0.01 to 0.1 µM | 
N#Cc1c(N)sc2c1C1(CC2)CN(c2nc(OC[C@@]34CCCN3C[C@H](F)C4)nc(O[C@@H]3COC[C@H]3O)n2)C1 (racemic) [Compound 80, 2-amino-1′-[4-[[(2R,8S)-2-fluoro-1,2,3,5,6,7-hexahydropyrrolizin-8-yl]methoxy]-6-[rac-(3R,4R)-4-hydroxytetrahydrofuran-3-yl]oxy-1,3,5-triazin-2-yl]spiro[5,6-dihydrocyclopenta[b]thiophene-4,3′-azetidine]-3-carbonitrile; 2,2,2-trifluoroacetic acid] | 1000 to 20000 nM |  | 
N#Cc1c(N)sc2c1C1(CN(c3nc(OC[C@@]45CCCN4C[C@H](F)C5)nc(N4[C@H]5CC[C@@H]4[C@H](C#N)C5)n3)C1)SC2 (racemic) [Compound 279, 2-amino-1′-[4-[(1RS,2RS,4SR)-2-cyano-7-azabicyclo[2.2.1]heptan-7-yl]-6-[[(2R,8S)-2-fluoro-1,2,3,5,6,7-hexahydropyrrolizin-8-yl]methoxy]-1,3,5-triazin-2-yl]spiro[6H-thieno[3,4-b]thiophene-4,3′-azetidine]-3-carbonitrile] |  | 0.1 to 1 µM | 
N#Cc1c(N)sc2c1C1(CN(c3nc(OC[C@@]45CCCN4C[C@H](F)C5)nc(N4CCC5(CCN5C(=O)n5cncn5)C4)n3)C1)SC2 (stereo partly drawn) [Compound 248, 2-amino-1′-[4-[[(2R,8S)-2-fluoro-1,2,3,5,6,7-hexahydropyrrolizin-8-yl]methoxy]-6-[1-(1,2,4-triazole-1-carbonyl)-1,7-diazaspiro[3.4]octan-7-yl]-1,3,5-triazin-2-yl]spiro[6H-thieno[2,3-c]thiophene-4,3′-azetidine]-3-carbonitrile] | 1000 to 20000 nM |  | 
